Experimental findings from ChEMBL document CHEMBL5614386, “Design, synthesis, and biological evaluation of novel 1-amido-2-one-4-thio-deoxypyranose as potential antitumor agents for multiple myeloma” (Bioorg Med Chem, 2024) are described below.

Data set [1] in a line: Anti-proliferative activity against human ARP-1cells assessed as cell growth inhibition incubated for 72 hrs by CCK-8 assay. As to conditions: ARP-1, 72 h. On the technique in general: Formazan colour is commonly taken as a measure of viable cells.
In data set [2] the test system is ARP-1. As to the kind of experiment: Anti-proliferative activity against human ARP-1 cells assessed as inhibition cell growth at 5 uM incubated for 72 hrs by CCK-8 assay. Type of data set: functional, cell-based.
Data set [3] relates to NCI-H929. The data set can be described thus: Anti-proliferative activity against human NCI-H929 cells assessed as cell growth inhibition incubated for 72 hrs by CCK-8 assay. As to conditions: NCI-H929, 72 h.
Data set [4] deals with NCI-H929. As to the kind of experiment: Anti-proliferative activity against human NCI-H929 cells assessed as inhibition cell growth at 5 uM incubated for 72 hrs by CCK-8 assay. In kind it is functional, cell-based.
Data set [5] has as its system NCI-H929. The data set can be described thus: Anti-proliferative activity against human NCI-H929 cells assessed as inhibition cell growth incubated for 72 hrs by CCK-8 assay. In kind it is functional, cell-based.
For data set [6], the system named is ARP-1. As to the kind of experiment: Anti-proliferative activity against human ARP-1 cells assessed as inhibition cell growth incubated for 72 hrs by CCK-8 assay. In kind it is functional, cell-based.
Data set [7] deals with NCI-H929. The data set can be described thus: Antitumor activity against human NCI-H929 cells xenografted in BALB/c nude mouse assessed as Ki-67 activity in tumor by microscopy based analysis. Type of data set: functional, cell-based. A general note: Xenograft models place foreign cells or tissue in a host animal.
Data set [8] deals with NCI-H929. As to the kind of experiment: Antitumor activity against human NCI-H929 cells xenografted in BALB/C nude mouse model assessed as reduction in tumor growth at 50 mg/kg, sc administrated every other day for 13 days. Type of data set: functional, organism-based. To be noted: time 13.0 day.
The nature of data set [9]: Toxicity in BALB/c nude mouse xenografted with human NCI-H929 cells assessed as side effect at 50 mg/kg, sc administrated every other day for 13 days by H and E staining based light microscopic analysis. As to conditions: in vivo, 312 h, time 13 day. Type of data set: organism-based.
Data set [10] is described as follows: Toxicity in BALB/c mouse assessed as histological change in tumor at 50 mg/kg, sc administrated every other day for 13 days by H and E staining based light microscopic analysis. In kind it is organism-based. To be noted: in vivo, 312 h, time 13 day.
The nature of data set [11]: Toxicity in BALB/c mouse assessed as histological change in kidney at 50 mg/kg, sc administrated every other day for 13 days by H and E staining based light microscopic analysis. As to conditions: in vivo, 312 h, time 13 day. Type of data set: organism-based.
Data set [12] is described as follows: Toxicity in BALB/c mouse xenografted with human NCI-H929 cells assessed as effect on body weight at 50 mg/kg, sc administrated every other day for 13 days. Type of data set: organism-based. As to conditions: in vivo, 312 h, time 13 day.
Data set [13] deals with NCI-H929. As to the kind of experiment: Induction of DNA damage in human NCI-H929 cells assessed as increase gamma-H2AX level at 10 to 20 uM incubated for 24 hrs by Western blot analysis. Type of data set: functional, cell-based. To be noted: dose 10-20 µM. (In general: In western blotting, separated proteins are transferred to a membrane and probed.)
Data set [14] in a line: Toxicity in BALB/c mouse assessed as histological change in liver at 50 mg/kg, sc administrated every other day for 13 days by H and E staining based light microscopic analysis. In kind it is organism-based. As to conditions: in vivo, 312 h, time 13 day.
The nature of data set [15]: Toxicity in BALB/c mouse assessed as histological change in heart at 50 mg/kg, sc administrated every other day for 13 days by H and E staining based light microscopic analysis. Type of data set: organism-based. As to conditions: in vivo, 312 h, time 13 day.
The nature of data set [16]: Toxicity in BALB/c nude mouse xenografted with human NCI-H929 cells assessed as drug tolerance at 50 mg/kg, sc administrated every other day for 13 days by H and E staining based light microscopic analysis. Type of data set: organism-based. As to conditions: in vivo, 312 h, time 13 day.
A short description of data set [17]: Anti-proliferative activity against human ARP-1 cells assessed as inhibition cell growth at 5 uM incubated for 72 hrs by CCK-8 assay relative to control. Also noted: scale not given: the % may be the effect or the level left. Type of data set: functional.
Data set [18] concerns NCI-H929. The data set can be described thus: Anti-proliferative activity against human NCI-H929 cells assessed as inhibition cell growth at 5 uM incubated for 72 hrs by CCK-8 assay relative to control. Also noted: scale not given: the % may be the effect or the level left. Type of data set: functional.

SMILES strings stand for the structures. Calls of active or inactive are those of the source. No cut-off for these calls is given here.

By IC50 is commonly meant the concentration that inhibits the measured activity by half. As to `CC(=O)OC[C@H]1O[C@@H](NC(=O)c2ccc3c(c2)OCO3)C(=O)CC1Sc1cc(C)cc(C)c1` (stereo not given in full), the IC50 in [1] came out at 2290 nM; with NCI-H929 [3], 1970 nM. For the same compound, the result in the data set with ARP-1 [2] and with NCI-H929 [4] was Active.
With `COc1ccc(SC2CC(O)[C@H](NC(=O)c3ccc4c(c3)OCO4)O[C@@H]2CO)cc1OC` (stereo not given in full), the outcome with NCI-H929 [5] and in the data set with ARP-1 [6] was Active.
As to `Cc1ccc(SC2CC(O)[C@H](NC(=O)c3ccc4c(c3)OCO4)O[C@@H]2CO)cc1` (stereo not given in full), the result in the data set on NCI-H929 [5] and in the data set on ARP-1 [6] was Active.
Turning to `CC(=O)OC[C@H]1O[C@@H](NC(=O)c2ccc3c(c2)OCO3)C(=O)CC1Sc1ccc(C)cc1` (stereo not given in full), the IC50 in [1] worked out at 1560 nM; with NCI-H929 [3], 850 nM. The outcome in the data set with ARP-1 [2] and in the data set with NCI-H929 [4] was Active.
In the case of `COc1ccc(SC2CC(=O)[C@H](NC(=O)c3ccc4c(c3)OCO4)O[C@@H]2COC(C)=O)cc1` (stereo not given in full), the IC50 in [1] is 1380 nM; in the data set on NCI-H929 [3], 1460 nM. For the same compound, the outcome with ARP-1 [2] and in the data set with NCI-H929 [4] was Active.
For `COc1ccc(SC2CC(O)[C@H](NC(=O)c3ccc4c(c3)OCO4)O[C@@H]2CO)cc1` (stereo not given in full), the outcome in the data set on NCI-H929 [5] and in the data set on ARP-1 [6] was Active.
As for `CC(=O)OC[C@H]1O[C@@H](NC(=O)c2ccccc2)C(=O)CC1Sc1ccc(Cl)cc1` (stereo not given in full), the IC50 was 1040 nM in data set [1] and 2680 nM in the data set on NCI-H929 [3]. Moreover, the result in the data set on ARP-1 [2] and with NCI-H929 [4] was Active.
Take `CC(=O)OC[C@H]1O[C@@H](NC(=O)c2ccc3c(c2)OCO3)C(=O)CC1SCc1ccco1` (stereo not given in full): the IC50 in data set [1] is 2710 nM; in the data set with NCI-H929 [3], 3030 nM. In addition, the result with ARP-1 [2] and in the data set with NCI-H929 [4] was Active.
For the compound `COc1ccc(SC2CC(=O)[C@H](NC(=O)c3ccc4c(c3)OCO4)O[C@@H]2COC(C)=O)cc1OC` (stereo not given in full), the result in the data set on NCI-H929 [7], with NCI-H929 [8], in the data set on ARP-1 [2], with NCI-H929 [4] and in the data set with NCI-H929 [13] was Active. Also, the figures for the IC50 (in [1]; in the data set on NCI-H929 [3]) were 2070 nM and 1240 nM, respectively. Moreover, the Activity entry in data set [9], in [10], in [11], in [12], in data set [14] and in [15] was “Non-Toxic” in each case. Also, the Activity entry in data set [16] is “Non-Toxic”.
For the compound `O=C1C2C3C=CC(C4CC34)C2C(=O)N1c1ccc(Cc2ccncc2)cc1` (stereo not given), the result in the data set with NCI-H929 [8] and with NCI-H929 [4] was Active. For the same compound, the IC50 in [1] is 5450 nM; in the data set on NCI-H929 [3] it was 6880 nM. In data set [12], the Activity result is “Non-Toxic”.
As for `COc1ccc(SC2CC(=O)[C@H](NC(=O)c3ccc(OC)cc3)O[C@@H]2COC(C)=O)cc1` (stereo not given in full), the results for the IC50 (in data set [1]; in the data set on NCI-H929 [3]) were 1410 nM and 1200 nM, respectively. The result in the data set on ARP-1 [2] and in the data set on NCI-H929 [4] was Active.
For the compound `COc1ccc(C(=O)N[C@@H]2O[C@H](COC(C)=O)C(Sc3ccc(C)cc3)CC2=O)cc1` (stereo not given in full), the IC50 in data set [1] is 4570 nM; in the data set with NCI-H929 [3] it was 1600 nM. Further, the outcome with ARP-1 [2] and with NCI-H929 [4] was Active.
Take `COc1ccc(SC2CC(O)[C@H](NC(=O)c3ccc(OC)cc3)O[C@@H]2COC(C)=O)cc1` (stereo not given in full): the Activity (in data set [17]; in the data set on NCI-H929 [18]) was under 20% each time.
